What was measured:
[1] = target: T1, Tyrosine-protein kinase JAK1 (Homo sapiens, UniProt P23458); experiment: IC50 values of test compounds was calculated from the data of the test compounds in inhibiting the activity of JAK1 kinase at different concentrations.
[2] = target: T1, Tyrosine-protein kinase JAK1; experiment: JAK1 Kinase Assay: TBDIn vitro kinase assays described below can be used to determine the activity of a test compound for inhibiting the activity of JAK1 kinase. The test compounds were dissolved in dimethyl sulfoxide and diluted with water to a serial concentration gradient as required in the experiment. JAK1 substrates (Cell Signaling Technology, Catalog Number: 1305s) and ATP (2 mM) solution …
[3] = target: T2, Tyrosine-protein kinase JAK3 (Homo sapiens, UniProt P52333); experiment: In Vitro Kinase Assay: In vitro kinase assays described below can be used to determine the activity of a test compound for inhibiting the activity of JAK3 kinase. The test compounds were dissolved in dimethyl sulfoxide and diluted with water to a serial concentration gradient as required by the experiment. JAK3 substrates (Cell Signaling Technology, Catalog Number: 1305s) and ATP (2 mM) solution …
T2 sequence (P52333 whole entry): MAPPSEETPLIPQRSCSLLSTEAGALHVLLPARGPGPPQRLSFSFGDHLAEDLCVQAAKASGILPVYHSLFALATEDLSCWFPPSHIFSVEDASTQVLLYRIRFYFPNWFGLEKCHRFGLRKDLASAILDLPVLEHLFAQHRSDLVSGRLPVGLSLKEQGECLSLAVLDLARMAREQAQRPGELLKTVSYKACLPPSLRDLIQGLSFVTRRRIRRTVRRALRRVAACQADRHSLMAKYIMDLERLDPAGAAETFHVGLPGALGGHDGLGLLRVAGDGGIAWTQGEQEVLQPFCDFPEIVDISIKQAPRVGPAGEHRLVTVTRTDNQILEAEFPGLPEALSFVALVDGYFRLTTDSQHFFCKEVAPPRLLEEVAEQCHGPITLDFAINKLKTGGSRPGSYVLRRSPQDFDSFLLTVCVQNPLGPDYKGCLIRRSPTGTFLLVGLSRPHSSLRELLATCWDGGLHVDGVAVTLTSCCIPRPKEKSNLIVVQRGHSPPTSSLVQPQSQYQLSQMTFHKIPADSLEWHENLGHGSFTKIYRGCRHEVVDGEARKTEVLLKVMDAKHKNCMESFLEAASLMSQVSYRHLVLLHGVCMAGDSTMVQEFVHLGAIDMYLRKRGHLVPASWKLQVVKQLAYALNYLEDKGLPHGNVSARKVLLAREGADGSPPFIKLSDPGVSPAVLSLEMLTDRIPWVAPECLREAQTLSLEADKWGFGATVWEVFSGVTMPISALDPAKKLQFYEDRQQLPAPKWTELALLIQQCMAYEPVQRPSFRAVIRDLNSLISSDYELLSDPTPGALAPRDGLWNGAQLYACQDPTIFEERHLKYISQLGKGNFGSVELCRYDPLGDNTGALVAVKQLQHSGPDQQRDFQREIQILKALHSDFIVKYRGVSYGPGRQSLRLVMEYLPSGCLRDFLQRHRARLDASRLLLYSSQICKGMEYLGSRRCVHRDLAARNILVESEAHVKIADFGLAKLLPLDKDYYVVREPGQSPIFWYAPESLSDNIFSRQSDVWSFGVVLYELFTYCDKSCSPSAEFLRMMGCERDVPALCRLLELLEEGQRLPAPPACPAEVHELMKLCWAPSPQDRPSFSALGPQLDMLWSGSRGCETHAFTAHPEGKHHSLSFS

T1 sequence (P23458 whole entry): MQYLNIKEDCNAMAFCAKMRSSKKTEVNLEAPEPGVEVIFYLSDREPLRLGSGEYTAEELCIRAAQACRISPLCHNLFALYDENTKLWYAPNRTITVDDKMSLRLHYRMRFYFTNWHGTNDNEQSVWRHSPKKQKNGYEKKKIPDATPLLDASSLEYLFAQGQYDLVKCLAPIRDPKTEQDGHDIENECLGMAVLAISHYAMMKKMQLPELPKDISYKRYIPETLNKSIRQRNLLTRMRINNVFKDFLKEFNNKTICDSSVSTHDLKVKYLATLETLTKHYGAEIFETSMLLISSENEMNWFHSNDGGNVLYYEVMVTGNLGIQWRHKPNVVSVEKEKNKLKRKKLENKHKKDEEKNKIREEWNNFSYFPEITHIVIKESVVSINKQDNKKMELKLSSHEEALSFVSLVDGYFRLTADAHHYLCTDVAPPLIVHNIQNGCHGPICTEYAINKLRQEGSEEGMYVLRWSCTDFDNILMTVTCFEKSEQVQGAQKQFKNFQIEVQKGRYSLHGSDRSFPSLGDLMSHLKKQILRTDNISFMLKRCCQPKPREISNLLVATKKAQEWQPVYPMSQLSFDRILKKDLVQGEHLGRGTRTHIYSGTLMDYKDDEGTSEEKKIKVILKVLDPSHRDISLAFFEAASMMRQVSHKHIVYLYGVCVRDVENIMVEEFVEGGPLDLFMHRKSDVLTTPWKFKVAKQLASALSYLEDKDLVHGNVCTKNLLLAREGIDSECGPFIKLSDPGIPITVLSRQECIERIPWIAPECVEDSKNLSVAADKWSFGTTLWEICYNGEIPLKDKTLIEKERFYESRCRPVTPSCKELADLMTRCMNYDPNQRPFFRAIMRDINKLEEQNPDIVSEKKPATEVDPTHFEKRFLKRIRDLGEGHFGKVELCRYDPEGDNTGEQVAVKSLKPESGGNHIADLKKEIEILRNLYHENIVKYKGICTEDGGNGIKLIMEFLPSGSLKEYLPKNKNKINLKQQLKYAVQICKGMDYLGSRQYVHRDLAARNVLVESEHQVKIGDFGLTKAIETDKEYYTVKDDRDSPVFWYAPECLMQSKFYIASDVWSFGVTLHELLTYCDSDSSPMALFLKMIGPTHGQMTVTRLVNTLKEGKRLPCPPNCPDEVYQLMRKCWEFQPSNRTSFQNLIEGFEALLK

Row | SMILES | IC50 [1] [µM] | IC50 [2] [µM] | IC50 [3] [µM]
1 | CN(c1ncnc2[nH]ccc12)[C@H]1C[C@@H]2CN(C(=O)[C@H](O)C(F)(F)F)C[C@@H]2C1 | 0.045 |  | 
2 | CN(c1ncnc2[nH]ccc12)[C@@H]1C[C@@H]2CCN(C(=O)Nc3nncs3)C[C@@H]2C1 |  | 0.04 | 0.148
